Results published in ChEMBL document CHEMBL1152339, “Use of the in vivo hollow fiber assay in natural products anticancer drug discovery” (J Nat Prod, 2009).

Experiments:
LNCaP [1] = assay: Growth inhibition of human LNCAP cells xenografted in NCr nu/nu mouse at 0.78 to 3.125 mg/kg, ip once daily administered from day 3 to 6 after implantation measured on day 7 by MTT-based hollow-fiber test; assay type: functional; conditions: route intraperitoneal
LNCaP [2] = assay: Growth inhibition of human LNCAP cells xenografted in NCr nu/nu mouse at 0.78 to 3.125 mg/kg, sc once daily administered from day 3 to 6 after implantation measured on day 7 by MTT-based hollow-fiber test; assay type: functional; conditions: route subcutaneous
LNCaP [3] = assay: Growth inhibition of human LNCAP cells xenografted in ip dosed NCr nu/nu mouse administered once daily from day 3 to 6 after implantation measured on day 7 by MTT-based hollow-fiber test; assay type: functional
KB [4] = assay: Growth inhibition of human KB cells xenografted in NCr nu/nu mouse at 0.78 to 3.125 mg/kg, sc once daily administered from day 3 to 6 after implantation measured on day 7 by MTT-based hollow-fiber test; assay type: functional; conditions: route subcutaneous
KB [5] = assay: Growth inhibition of human KB cells xenografted in NCr nu/nu mouse at 0.78 to 3.125 mg/kg, ip once daily administered from day 3 to 6 after implantation measured on day 7 by MTT-based hollow-fiber test; assay type: functional; conditions: route intraperitoneal
Lu1 [6] = assay: Growth inhibition of human Lu1 cells xenografted in NCr nu/nu mouse at 6.2 to 25 mg/kg, sc once daily administered from day 3 to 6 after implantation measured on day 7 by MTT-based hollow-fiber test; assay type: functional; conditions: dose mg/kg 3-6; route subcutaneous
KB [7] = assay: Growth inhibition of human KB cells xenografted in NCr nu/nu mouse at 6.2 to 25 mg/kg, sc once daily administered from day 3 to 6 after implantation measured on day 7 by MTT-based hollow-fiber test; assay type: functional; conditions: route subcutaneous
Lu1 [8] = assay: Growth inhibition of human Lu1 cells xenografted in NCr nu/nu mouse at 6.2 to 25 mg/kg, ip once daily administered from day 3 to 6 after implantation measured on day 7 by MTT-based hollow-fiber test; assay type: functional; conditions: dose mg/kg 3-6; route intraperitoneal
LNCaP [9] = assay: Growth inhibition of human LNCAP cells xenografted in NCr nu/nu mouse at 6.2 to 25 mg/kg, ip once daily administered from day 3 to 6 after implantation measured on day 7 by MTT-based hollow-fiber test; assay type: functional; conditions: route intraperitoneal
Lu1 [10] = assay: Growth inhibition of human Lu1 cells xenografted in ip dosed NCr nu/nu mouse administered once daily from day 3 to 6 after implantation measured on day 7 by MTT-based hollow-fiber test; assay type: functional
LNCaP [11] = assay: Growth inhibition of human LNCAP cells xenografted in NCr nu/nu mouse at 6.2 to 25 mg/kg, sc once daily administered from day 3 to 6 after implantation measured on day 7 by MTT-based hollow-fiber test; assay type: functional; conditions: route subcutaneous
KB [12] = assay: Growth inhibition of human KB cells xenografted in NCr nu/nu mouse at 6.2 to 25 mg/kg, ip once daily administered from day 3 to 6 after implantation measured on day 7 by MTT-based hollow-fiber test; assay type: functional; conditions: route intraperitoneal
LNCaP [13] = assay: Growth inhibition of human LNCAP cells xenografted in NCr nu/nu mouse at 10 to 40 mg/kg, sc once daily administered from day 3 to 6 after implantation measured on day 7 by MTT-based hollow-fiber test; assay type: functional; conditions: route subcutaneous
LNCaP [14] = assay: Growth inhibition of human LNCAP cells xenografted in NCr nu/nu mouse at 10 to 40 mg/kg, ip once daily administered from day 3 to 6 after implantation measured on day 7 by MTT-based hollow-fiber test; assay type: functional; conditions: route intraperitoneal
LNCaP [15] = assay: Growth inhibition of human LNCAP cells xenografted in NCr nu/nu mouse at 5 to 20 mg/kg, sc once daily administered from day 3 to 6 after implantation measured on day 7 by MTT-based hollow-fiber test; assay type: functional; conditions: route subcutaneous
LNCaP [16] = assay: Growth inhibition of human LNCAP cells xenografted in NCr nu/nu mouse at 5 to 20 mg/kg, ip once daily administered from day 3 to 6 after implantation measured on day 7 by MTT-based hollow-fiber test; assay type: functional; conditions: route intraperitoneal
MCF7 [17] = assay: Growth inhibition of human MCF7 cells xenografted in NCr nu/nu mouse at 0.625 to 5 mg/kg, sc once daily administered from day 3 to 6 after implantation measured on day 7 by MTT-based hollow-fiber test; assay type: functional; conditions: dose mg/kg 3-6; route subcutaneous
MCF7 [18] = assay: Growth inhibition of human MCF7 cells xenografted in NCr nu/nu mouse at 0.625 to 5 mg/kg, ip once daily administered from day 3 to 6 after implantation measured on day 7 by MTT-based hollow-fiber test; assay type: functional; conditions: dose mg/kg 3-6; route intraperitoneal
LNCaP [19] = assay: Growth inhibition of human LNCAP cells xenografted in NCr nu/nu mouse at 0.625 to 5 mg/kg, ip once daily administered from day 3 to 6 after implantation measured on day 7 by MTT-based hollow-fiber test; assay type: functional; conditions: route intraperitoneal
MCF7 [20] = assay: Growth inhibition of human MCF7 cells xenografted in ip dosed NCr nu/nu mouse administered once daily from day 3 to 6 after implantation measured on day 7 by MTT-based hollow-fiber test; assay type: functional
Lu1 [21] = assay: Growth inhibition of human Lu1 cells xenografted in NCr nu/nu mouse at 0.625 to 5 mg/kg, ip once daily administered from day 3 to 6 after implantation measured on day 7 by MTT-based hollow-fiber test; assay type: functional; conditions: dose mg/kg 3-6; route intraperitoneal
LNCaP [22] = assay: Growth inhibition of human LNCAP cells xenografted in NCr nu/nu mouse at 0.625 to 5 mg/kg, sc once daily administered from day 3 to 6 after implantation measured on day 7 by MTT-based hollow-fiber test; assay type: functional; conditions: route subcutaneous
Lu1 [23] = assay: Growth inhibition of human Lu1 cells xenografted in NCr nu/nu mouse at 0.625 to 5 mg/kg, sc once daily administered from day 3 to 6 after implantation measured on day 7 by MTT-based hollow-fiber test; assay type: functional; conditions: dose mg/kg 3-6; route subcutaneous
[24] = Acute toxicity in ip dosed mouse; assay type: organism-based; conditions: in vivo

Question: For CC(=O)O[C@@H]1O[C@@H]([C@H]2c3cccc(O)c3C(=O)c3c(O)cc(C)cc32)[C@H](O)[C@@H](OC(=O)C=C(C)C)[C@H]1O [ALVARADOIN H], which “growth inhibition (GI)” value (LNCaP [1]) is on record?
Answer: Its value is 47%.

Question: And the “growth inhibition (GI)” value (LNCaP [2])?
Answer: Its value is 10%.

Question: What about the ED50 (LNCaP [3]) of the same compound?
Answer: The ED50 was 290 nM.

Question: What about the “growth inhibition (GI)” value (KB [4]) of the same compound?
Answer: Its value is 1%.

Question: What about the “growth inhibition (GI)” value (KB [5]) of the same compound?
Answer: Its value is 43%.

Question: With C[C@@H]1CC[C@@]2(OC1)O[C@H]1C[C@H]3[C@@H]4CC=C5C[C@@H](O[C@@H]6O[C@H](CO)[C@@H](O[C@@H]7O[C@@H](C)[C@H](O)[C@@H](O)[C@H]7O)[C@H](O)[C@H]6O[C@@H]6O[C@@H](C)[C@H](O)[C@@H](O)[C@H]6O)CC[C@]5(C)[C@H]4CC[C@]3(C)[C@H]1[C@@H]2C [DIOSCIN] as the compound, how does the “growth inhibition (GI)” value (Lu1 [6]) read?
Answer: Its value is 0%.

Question: And the “growth inhibition (GI)” value (KB [7])?
Answer: The value was 4%.

Question: What about the “growth inhibition (GI)” value (Lu1 [8]) of the same compound?
Answer: Its value is 25%.

Question: And the “growth inhibition (GI)” value (LNCaP [9])?
Answer: Its value is 37%.

Question: What about the ED50 (Lu1 [10]) of the same compound?
Answer: The ED50 was 1200 nM.

Question: And the “growth inhibition (GI)” value (LNCaP [11])?
Answer: Its value is 36%.

Question: And the “growth inhibition (GI)” value (KB [12])?
Answer: The value was 79%.

Question: What about the ED50 (LNCaP [3]) of the same compound?
Answer: The ED50 was 1700 nM.

Question: What does the source list for COc1ccc([C@H]2COc3c(ccc4c3C=CC(C)(CCC=C(C)C)O4)C2)c(O)c1O (some centres undefined) [NITIDULIN]?
Answer: ED50 (LNCaP [3]): 9700 nM; growth inhibition (GI) (LNCaP [13]): 0%; growth inhibition (GI) (LNCaP [14]): 54%

Question: Which results are given for O=C1OC[C@@H]2Cc3cc4c(cc3[C@@H](c3ccc5c(c3)OCO5)[C@H]12)OCO4 [PICROPOLYGAMAIN]?
Answer: growth inhibition (GI) (LNCaP [15]): 3%; growth inhibition (GI) (LNCaP [16]): 21%; ED50 (LNCaP [3]): 3100 nM

Question: For COC(=O)[C@H]1[C@@H](O)[C@@]2(O)c3c(OC)cc(O[C@@H]4O[C@@H]([C@H](O)CO)CO[C@H]4OC)cc3O[C@@]2(c2ccc(OC)cc2)[C@@H]1c1ccccc1 [SILVESTROL], which “growth inhibition (GI)” value (MCF7 [17]) is on record?
Answer: Its value is 5%.

Question: What about the “growth inhibition (GI)” value (MCF7 [18]) of the same compound?
Answer: Its value is 20%.

Question: And the “growth inhibition (GI)” value (LNCaP [19])?
Answer: The value was 15%.

Question: What about the ED50 (MCF7 [20]) of the same compound?
Answer: Its ED50 is 1.5 nM.

Question: And the “growth inhibition (GI)” value (Lu1 [21])?
Answer: Its value is 12%.

Question: What about the “growth inhibition (GI)” value (LNCaP [22]) of the same compound?
Answer: The value was 12%.

Question: What about the ED50 (Lu1 [10]) of the same compound?
Answer: Its ED50 is 1.2 nM.

Question: And the “growth inhibition (GI)” value (Lu1 [23])?
Answer: Its value is 0%.

Question: What about the MTD [24] of the same compound?
Answer: Its MTD is 2.5 mg/kg.

Question: What about the ED50 (LNCaP [3]) of the same compound?
Answer: Its ED50 is 1.5 nM.
